In US10507207B2, “Non-nucleosidic inhibitors of reverse transcriptase as antagonists of cell proliferation and inducers of cell differentiation” (ISTITUTO SUPERIORE DI SANITA, priority 2001, dated 2019):

Key:
AML #2 [1] = experiment: Growth, viable cell count; assay type: cell-based, human; conditions: AML #2, Nev 350 μM, 4 days
HL60 cells [2] = experiment: Morphological differentiation, Wright-Giemsa staining; assay type: cell-based, human; conditions: five days of nevirapine treatment (400 μM)
[3] = test system: Saos-2 osteosarcoma cells; experiment: Cell proliferation by cell counting; assay type: cell-based, human; conditions: 350 μM nevirapine vs control cultures
Protocol: Samples were withdrawn at specific times and cells were counted in nevirapine-exposed and control (DMSO-exposed) cultures. […] Saos-2 osteosarcoma cells were the most slowly responsive type, and only after 5 days of exposure did the growth rate begin to decrease compared to control cultures.
The effect of efavirenz was further tested in human HeLa adenocarcinoma and Saos-2 osteosarcoma cells. Both cell lines were cultured in the conditions described above (Example 6). To establish if prolonged exposure to the drug improved the effectiveness of growth inhibition, both cell lines were exposed to efavirenz in two subsequent cycles: during the 1st cycle cells were continuously exposed to 20 μM efavirenz for 5 days; cells were then diluted, reseeded again and the 2nd cycle exposure was initiated the following day with fresh drug. […] The inhibitory effect was time-dependent, since in both HeLa and Saos-2 cultures, the 1st cycle of exposure (5 days) yielded a 1.6- and 1.5-fold reduction, respectively, whereas a 5- and 4-fold reduction was obtained in the 2nd cycle (carried out until day 20 from the onset of exposure).

HT-29 = experiment: FACS cell cycle analysis; assay type: cell-based, human; conditions: after 72 h of nevirapine treatment
From the text: (§1) FIG. 3A. Cell cycle analysis in control and nevirapine-exposed cells. […] In the U343 glioma cell line, the cell cycle was separately analysed in the diploid cell fraction (representing about ⅔ of all cells) and in the remaining fraction (about ⅓) which develops aneuploidy. FIG. 3B. […] The filter was reprobed with anti-actin antibody to control equal loading (lower panel).

U343 Mg = experiment: FACS cell cycle analysis; assay type: cell-based, human; conditions: after 72 h of nevirapine treatment
From the text: as §1

MCF-7 = experiment: FACS cell cycle analysis; assay type: cell-based, human; conditions: after 72 h of nevirapine treatment
From the text: as §1

Kasumi-1 cells [4] = experiment: Growth, viable cell count; assay type: cell-based, human; conditions: Kasumi-1, Nev 350 μM, 4 days
cyclin D1 in NIH/3T3 = experiment: Western immunoblotting of cyclin D1; assay type: cell-based, murine; conditions: 72 h nevirapine vs non-exposed controls
From the text: as §1

NIH/3T3 = experiment: FACS cell cycle analysis; assay type: cell-based, murine; conditions: after 72 h of nevirapine treatment
From the text: as §1

[5] = test system: human acute myeloid leukemia (AML) cells; experiment: NBT dye reduction assay, summary over Table 2; assay type: cell-based; conditions: nevirapine treatment vs control (Table 2)
AML #2 [6] = experiment: NBT dye reduction assay; assay type: cell-based, human; conditions: AML #2, Nev 350 μM, 4 days
NB4 cells [7] = experiment: Cytofluorimetric analysis of cell surface markers; assay type: cell-based, human; conditions: NB4, NEV 450 μM, 4 days
From the text: (§2) The induction of CD11b is associated with granulocytic differentiation, CD14 is considered a monocytic specific antigen and CD15 is a myelomonocytic antigen. Simultaneous induction of CD14 and CD11b relates to monocytic differentiation. […] In nevirapine-treated NB4 and HL60 cells, a strong induction of expression of CD15, and, to a lesser degree, CD11b and CD14 markers was detected.

HL60 cells [8] = experiment: Cytofluorimetric analysis of cell surface markers; assay type: cell-based, human; conditions: HL60, NEV 450 μM, 4 days
From the text: as §2

NB4 cells [9] = experiment: Morphological differentiation, Wright-Giemsa staining; assay type: cell-based, human; conditions: five days of nevirapine treatment (400 μM)
F9 teratocarcinoma cells = experiment: Cell proliferation by cell counting; assay type: cell-based, murine; conditions: 350 μM nevirapine, after 120 h of exposure
Protocol: NIH/3T3 embryo fibroblasts and F9 teratocarcinoma cells were cultured in DMEM containing 10-20% fetal serum and two concentrations of efavirenz, i.e. 10 and 20 μM, diluted from a stock solution (10 mM) in 100% DMSO. Cells were plated at a density of 2-5×10^4 in 35 mm Petri dishes and exposed to efavirenz 5-6 hours later. Samples were withdrawn at specific times and cells were counted in efavirenz-exposed compared to parallel non-exposed cell cultures.

endogenous RT activity = experiment: PCR-based functional RT activity assay (MS2 RNA) with F9 lysate; assay type: biochemical, murine; conditions: cell lysate pre-incubated with 100 μM
From the text: FIG. 1: Reverse transcriptase in murine and human cell lines. FIG. 1A. […] Lanes M, DNA molecular weight markers; lane 23, positive control reaction with commercial Rt. FIG. 1B. Western analysis of RT proteins (upper panels) and α-tubulin (lower panels) in WCE and nuclei. WCE were from: F9 (lane 1), NIH/3T3 (lane 2), MCF7 (lane 3), MDA-231 (lane 4), NB4 (lane 5), HL60 (lane 6) and ML2 blasts (lane 7). Nuclear extracts were from: F9 (lane 1), MCF7 (lane 2), MDA-231 (lane 3), NIH 3T3 (lane 4), HL60 (lane 5) and NB4 (lane 6).
The RT enzymatic activity, which is the target of the inhibitors described herein, has been detected in all cell lines, of both murine and human origin, that have been tested in this work using a PCR-based assay. […] The presence of RT enzyme in tumor cells is further confirmed by Western blot analysis.

Kasumi-1 cells [10] = experiment: NBT dye reduction assay; assay type: cell-based, human; conditions: Kasumi-1, Nev 350 μM, 4 days
AML #1 = experiment: NBT dye reduction assay; assay type: cell-based, human; conditions: AML #1, Nev 350 μM, 4 days
Kasumi-1 cells [11] = experiment: Differentiation of AML cells poorly sensitive to RA; assay type: cell-based, human; conditions: nevirapine treatment
NB4 cells [12] = experiment: Growth, viable cell count; assay type: cell-based, human; conditions: NB4, Nev 350 μM, 4 days

Cc1ccnc2c1NC(=O)c1cccnc1N2C1CC1 [nevirapine, 5,11-dihydro-11-cyclopropyl-4-methyl-6H-dipyrido-[3,2-b:2′,3′-e][1,4]diazepin-6-one]
Viable cells N^0 × 10^5 (AML #2 [1]): 1.2 ± 0.1 × 10^5
morphology (HL60 cells [2]): myelomonocytic-like morphology was evident
exposure after which the growth rate begins to decrease [3]: 5 days
cells with a G0/G1 DNA content (HT-29): accumulated
cells with a G0/G1 DNA content (U343 Mg): accumulated
cells with a G0/G1 DNA content (MCF-7): accumulated
Viable cells N^0 × 10^5 (Kasumi-1 cells [4]): 4.5 ± 0.9 × 10^5
cyclin D1 levels (cyclin D1 in NIH/3T3): substantial decrease
cells with a G0/G1 DNA content (NIH/3T3): accumulated
increase in the number of positive cells in the NBT dye reduction assay [5]: 2.0-3.5 fold
NBT (%) (AML #2 [6]): 68.1 ± 1.4%
CD11b mean fluorescence intensity (NB4 cells [7]): 10.1 AU
CD14 mean fluorescence intensity (NB4 cells [7]): 23.1 AU
CD15 mean fluorescence intensity (NB4 cells [7]): 196.3 AU
CD11b mean fluorescence intensity (HL60 cells [8]): 16.6 AU
CD14 mean fluorescence intensity (HL60 cells [8]): 45.3 AU
CD15 mean fluorescence intensity (HL60 cells [8]): 1298.1 AU
morphology (NB4 cells [9]): myelomonocytic-like morphology was evident
reduction in the proliferation rate (F9 teratocarcinoma cells): 5 fold
RT activity, 112 bp-product (endogenous RT activity): abolished
NBT+ (%) (Kasumi-1 cells [10]): 31.2 ± 1.1%
NBT+ (%) (AML #1): 19.5 ± 0.7%
differentiation (morphological, functional, immunophenotypic) (Kasumi-1 cells [11]): triggering differentiation
Viable cells N^0 × 10^5 (NB4 cells [12]): 2.6 ± 0.4 × 10^5
